The values that follow are results of earlier work, collected in patent publication US20250114375A1, “PHARMACEUTICAL COMPOSITION OF LIFITEGRAST AND LOTEPREDNOL ETABONATE” (ORBICULAR PHARMACEUTICAL TECHNOLOGIES PRIVATE LIMITED, priority 2022, published 2025).

SMILES strings stand for the structures.

Series [1] has as its system conjunctival goblet cells. The note with it: in vivo.
The target in a further series is T1, glucocorticoid receptors (Homo sapiens, UniProt P04150).
T1 sequence (P04150 1-777): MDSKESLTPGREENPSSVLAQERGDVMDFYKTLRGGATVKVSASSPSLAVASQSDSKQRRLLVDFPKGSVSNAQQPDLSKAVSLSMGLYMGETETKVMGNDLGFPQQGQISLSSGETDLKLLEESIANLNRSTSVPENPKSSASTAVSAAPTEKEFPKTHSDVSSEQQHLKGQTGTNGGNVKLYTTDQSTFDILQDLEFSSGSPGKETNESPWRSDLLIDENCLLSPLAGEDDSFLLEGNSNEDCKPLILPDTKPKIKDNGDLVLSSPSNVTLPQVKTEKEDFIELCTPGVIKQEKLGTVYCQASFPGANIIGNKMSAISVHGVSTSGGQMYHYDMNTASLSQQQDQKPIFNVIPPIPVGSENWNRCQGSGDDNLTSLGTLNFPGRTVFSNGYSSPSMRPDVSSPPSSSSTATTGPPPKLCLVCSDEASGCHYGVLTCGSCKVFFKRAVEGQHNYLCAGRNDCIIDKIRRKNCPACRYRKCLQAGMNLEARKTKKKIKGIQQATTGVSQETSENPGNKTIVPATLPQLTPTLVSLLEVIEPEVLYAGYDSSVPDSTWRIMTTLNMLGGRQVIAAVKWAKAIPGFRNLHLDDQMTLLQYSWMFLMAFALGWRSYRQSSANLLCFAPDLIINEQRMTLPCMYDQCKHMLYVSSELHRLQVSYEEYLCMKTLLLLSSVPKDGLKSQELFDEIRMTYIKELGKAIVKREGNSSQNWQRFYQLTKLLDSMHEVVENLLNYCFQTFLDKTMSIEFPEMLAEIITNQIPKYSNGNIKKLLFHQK
The note with it: inactive carboxylic acid metabolite of loteprednol etabonate.

Consider `CS(=O)(=O)c1cccc(C[C@H](NC(=O)c2c(Cl)cc3c(c2Cl)CCN(C(=O)c2ccc4ccoc4c2)C3)C(=O)O)c1` [Lifitegrast], for which, in series [1], the “increase of goblet cell area” value is reported as 22% and the “increase of the number of conjunctival goblet cells” value is 39%. On to `CCOC(=O)OC1(C(=O)O)CCC2C3CCC4=CC(=O)C=CC4(C)C3C(O)CC21C` (stereo not drawn) [PJ-91], for which the “binding to glucocorticoid receptors” value on glucocorticoid receptors is on record as “does not bind”.
